Measurements: ChEMBL document CHEMBL2203242, “A regio- and stereoselective 1,3-dipolar cycloaddition for the synthesis of new-fangled dispiropyrrolothiazoles as antimycobacterial agents” (Bioorg Med Chem Lett, 2012)
In brackets after ≈: the same amount, converted by molar mass.

What was measured:
[1] = tested on: Mycobacterium tuberculosis; assay: Antimycobacterial activity against Mycobacterium tuberculosis H37Rv by agar dilution method; type: functional
Vero = assay: Cytotoxicity against african green monkey Vero cells after 72 hrs by MTT assay; type: cell-based; details: Chlorocebus sabaeus

| SMILES | MIC90 [1] [µM] | IC50 (Vero) [µg/mL] |
| --- | --- | --- |
| COc1cc2c(cc1OC)C(=O)[C@]1(C2)[C@@H](c2ccccc2)[C@@H]2CSCN2[C@@]12C(=O)Nc1ccc(OC(F)(F)F)cc12 | > 6.25 | > 62.5 |
| COc1cc2c(cc1OC)C(=O)[C@]1(C2)[C@@H](c2ccccc2Cl)[C@@H]2CSCN2[C@@]12C(=O)Nc1ccc(OC(F)(F)F)cc12 | 11.4 (≈ 7.04 µg/mL) | > 62.5 |
| COc1cc2c(cc1OC)C(=O)[C@]1(C2)[C@@H](c2ccc(F)cc2)[C@@H]2CSCN2[C@@]12C(=O)N(N1CCOCC1)c1ccccc12 | 8.12 (≈ 4.89 µg/mL) | > 62.5 |
| COc1ccc([C@H]2[C@@H]3CSCN3[C@@]3(C(=O)N(N4CCOCC4)c4ccccc43)[C@@]23Cc2cc(OC)c(OC)cc2C3=O)cc1OC | 21.2 (≈ 13.6 µg/mL) | > 62.5 |
| COc1cc2c(cc1OC)C(=O)[C@]1(C2)[C@@H](c2ccccc2)[C@@H]2CSCN2[C@@]12C(=O)N(N1CCOCC1)c1ccccc12 | > 6.25 | > 62.5 |
| COc1cc2c(cc1OC)C(=O)[C@]1(C2)[C@@H](c2ccccc2Cl)[C@@H]2CSCN2[C@@]12C(=O)N(N1CCOCC1)c1ccccc12 | 6.29 (≈ 3.89 µg/mL) | > 62.5 |
| COc1cc2c(cc1OC)C(=O)[C@]1(C2)[C@@H](c2ccc(F)cc2)[C@@H]2CSCN2[C@@]12C(=O)Nc1ccc(OC(F)(F)F)cc12 | 0.72 (≈ 0.432 µg/mL) | > 62.5 |
| COc1ccc([C@H]2[C@@H]3CSCN3[C@@]3(C(=O)Nc4ccc(OC(F)(F)F)cc43)[C@@]23Cc2cc(OC)c(OC)cc2C3=O)cc1OC | 12.2 (≈ 7.85 µg/mL) | > 62.5 |
| NNC(=O)c1ccncc1 [ISONIAZID] | 0.73 (≈ 0.1 µg/mL) | > 62.5 |
